These results are taken from the OPERA property sets (Mansouri et al. 2018).

One may read the melting point as the temperature of the solid-liquid transition. For orientation: boiling point means the temperature of boiling at a given pressure.

Molecules are shown by their SMILES.

The compound `Cn1cnc2ncnc-2c1N` yielded a log10 vapour pressure (mmHg) of -11.8.

`CCCCB(O)O` displayed a melting point of 95 °C.

In the case of `O=C(c1ccccc1)C1CCCCC1`, the melting point was found to be 56 °C.

Turning to `FC(F)(F)c1ccccc1Br`, the boiling point worked out at 168 °C.

The compound `CCC(=O)F` yielded a boiling point of 44 °C.

On to `c1ccc(OB(Oc2ccccc2)Oc2ccccc2)cc1`, for which the melting point came out at 99.5 °C.

`CCCC=O` displayed a log10 Henry constant (atm·m³/mol) of -3.94, a log10 Koa of 3.39, a log10 vapour pressure (mmHg) of 2.05 and a melting point of -99 °C. The ready biodegradability result is on record as “readily biodegradable”.

Compound `CCN(CC)c1ccc(N=O)cc1` registered a melting point of 87.5 °C.

As for `CCc1c(Br)c(Br)c(Br)c(Br)c1Br`, the log10 Koc (L/kg) was 4.92, the melting point worked out at 138 °C and the ready biodegradability result is “not readily biodegradable”.

For `CCCCCCCCCCCCCCCCCCC#N`, the ready biodegradability entry is “readily biodegradable”.

Regarding `O=[N+]([O-])c1cc([N+](=O)[O-])c(F)cc1F`, the melting point stood at 73 °C.

`CC=C(C)C(C)(C)C` yielded a boiling point of 112 °C.

For the compound `CCOC(=O)C#N`, the boiling point was 116 °C.

For `CCCCC(CC)COC(=O)/C=C/C(=O)OCC(CC)CCCC` (stereo unspecified), the boiling point came to 300 °C and the melting point is -10 °C.

`CC(C)C(C)(O)C(C)C` came in with a boiling point of 156 °C.

Consider `CC(C)C(c1ccccc1)C(C)C`, for which the boiling point is 221 °C and the melting point was -24.5 °C.

As for `Cc1cc(C)c(Br)c(C)c1`, the boiling point came to 225 °C and the melting point is -1 °C.

Turning to `CC(C)(C)NC(=O)COC(=O)c1ccccc1`, the melting point was found to be 112 °C.

In turn, `O=C1C=C(Nc2ccccc2)C(=O)c2ccccc21` yielded a melting point of 193 °C.

With `Cc1ccc(N=Nc2c(O)ccc3ccccc23)c([N+](=O)[O-])c1`, the ready biodegradability result is on record as “not readily biodegradable”.

`CC1(C)[C@H]2CC[C@]1(C)[C@H](O)C2` showed a boiling point of 210 °C.

In turn, `Brc1cccc(Oc2ccc(Br)c(Br)c2Br)c1` showed a log10 vapour pressure (mmHg) of -5.66.

Consider `Cc1ccc(NC(=O)N(C)C)cc1Cl`, for which the log10 Koc (L/kg) was determined as 2.02, the log10 vapour pressure (mmHg) was -7.44, the melting point is 148 °C and the ready biodegradability result is listed as “not readily biodegradable”.

Turning to `CCC(CC)C(=O)Cl`, the boiling point was found to be 140 °C.

Compound `BrCC1CO1` (stereo unspecified) returned a boiling point of 135 °C and a melting point of -40 °C.

Regarding `COC(=O)c1ccc(C(F)(F)F)nc1S(=O)(=O)[N]([Na])C(=O)Nc1nc(OC)cc(OC)n1`, the log10 Koc (L/kg) worked out at 1.46.

Take `Cc1c(N=C=O)cccc1N=C=O`: the log10 vapour pressure (mmHg) is -1.68 and the melting point was determined as 18.3 °C.

On to `CCOC(=O)NCCOc1ccc(Oc2ccccc2)cc1`, for which the log10 Koc (L/kg) stood at 3, the log10 vapour pressure (mmHg) is -8.2 and the melting point is 53.2 °C.

In turn, `CCOC(=O)c1ccccc1[N+](=O)[O-]` showed a boiling point of 275 °C and a melting point of 30 °C.

Regarding `OC1CCCC1`, the boiling point was determined as 140 °C, the log10 vapour pressure (mmHg) amounted to 0.396 and the melting point is -19 °C.

Regarding `c1ccc(Cn2cccc2)cc1`, the boiling point was determined as 247 °C and the melting point stood at 15 °C.

Consider `CC(C)(C)C(=O)O`, for which the boiling point came out at 164 °C, the log10 Henry constant (atm·m³/mol) is -5.56, the log10 vapour pressure (mmHg) was -0.301 and the melting point amounted to 35 °C. The ready biodegradability result is “not readily biodegradable”.

Turning to `C=CC(C)C(C)CC` (stereo unspecified), the boiling point was determined as 112 °C.

With `O=C(OCC(=O)N1CCCCCC1)c1ccccc1`, the melting point stood at 108 °C.

For `CC1=CC(=O)CC1`, the boiling point was determined as 158 °C.

On to `CCCCCCCCCCCCCCCCCCCCCCO`, for which the melting point was 72.5 °C.

Take `O=[N+]([O-])c1ccc(Cl)c(Cl)c1`: the boiling point stood at 256 °C, the log10 Henry constant (atm·m³/mol) was -5.09, the log10 Koc (L/kg) turned out to be 2.53 and the log10 vapour pressure (mmHg) was -1.99. The melting point came out at 43 °C and the ready biodegradability entry is reported as “not readily biodegradable”.

Compound `CN(N)c1ccccc1` gave a boiling point of 228 °C.

Consider `CC(O)CN(CC(C)O)CC(C)O` (stereo unspecified), for which the boiling point stood at 305 °C, the melting point is 45 °C and the ready biodegradability result is on record as “not readily biodegradable”.

`Nc1ccc(N=O)cc1` came in with a melting point of 174 °C.

Compound `C#CCCCCCCC` returned a boiling point of 151 °C, a log10 vapour pressure (mmHg) of 0.797 and a melting point of -50 °C.

`CCOC(=O)C1=C(C)NC(C)=C(C(=O)OCC)C1` returned a melting point of 180 °C.

In turn, `C[Si](O)(c1ccccc1)c1ccccc1` showed a melting point of 167 °C.

`C[C@H]1CC[C@@H]2[C@@H](C)[C@H]3[C@H](C[C@H]4[C@@H]5CC=C6C[C@@H](O)CC[C@]6(C)[C@H]5CC[C@]34C)N2C1` returned a melting point of 218 °C.

`CC(Br)C(=O)O` (stereo unspecified) displayed a boiling point of 203 °C.

`CC(C)COC(=O)CC(C)C` gave a boiling point of 168 °C and a log10 vapour pressure (mmHg) of 0.266.

Take `CCOC(=O)c1ccccc1Cl`: the boiling point was 243 °C.

Turning to `CCOCCOCCOCCO`, the boiling point is 256 °C, the log10 vapour pressure (mmHg) was -2, the melting point was -18.7 °C and the ready biodegradability entry is recorded as “readily biodegradable”.

The compound `S=C(Nc1ccccc1)c1ccccc1` showed a melting point of 102 °C.

With `C=CC(C)CCCC(C)C` (stereo unspecified), the boiling point amounted to 154 °C.

Take `CC(CC(C)(C)O)OC(O)C(Cl)(Cl)Cl` (stereo unspecified): the melting point amounted to 103 °C.

Turning to `CCC(C)OC=O` (stereo unspecified), the boiling point came to 97 °C.

`O=C(O)c1cc([N+](=O)[O-])ccc1[N+](=O)[O-]` came in with a log10 Koc (L/kg) of 2.3.

`CC(C)(O)CO` gave a boiling point of 176 °C.

As for `CCCCCCCCNC(C)C(O)c1ccc(SC(C)C)cc1` (stereo unspecified), the melting point is 62.5 °C.

`Cc1ccc2cc3ccccc3cc2c1` yielded a log10 vapour pressure (mmHg) of -5.27 and a melting point of 209 °C.

In the case of `Oc1ccc(I)cc1`, the melting point stood at 93.5 °C and the ready biodegradability entry is listed as “not readily biodegradable”.
